IC50 data for eleven compounds are collected here from patent US20230242585A1, “IMMUNOMODULATORS” (Bristol-Myers Squibb Company, priority 2020, published 2023).

Starred links: 1 amine or outer side, 2 acyl side, 3 side chain; linkers in the order of their positions; H or OH if unused. Positions of bridges follow the written chain, without caps; N, C: chain ends. Non-standard residues stand in square brackets, D forms with d. Residues, ends and D or L forms follow the SMILES beside them. X28 = O=C([C@H](CCNC[C@H](O)[C@@H](O)[C@H](O[C@@H]1O[C@H](CO)[C@H](O)[C@H](O)[C@H]1O)[C@H](O)CO)N[*:1])[*:2]; X27 = O=C([C@H](CNC[C@H](O)[C@@H](O)[C@H](O[C@@H]1O[C@H](CO)[C@H](O)[C@H](O)[C@H]1O)[C@H](O)CO)N[*:1])[*:2]; X48 = O=C([C@H](CCNCc1ccccc1O[C@@H]1O[C@H](CO)[C@@H](O)[C@H](O)[C@H]1O)N[*:1])[*:2]; X47 = O=C([C@H](CNCc1ccccc1O[C@@H]1O[C@H](CO)[C@@H](O)[C@H](O)[C@H]1O)N[*:1])[*:2]; X40 = O=C([C@H](CNC1[C@@H](O)[C@@H](O)[C@@H](O)[C@H](O)[C@H]1O)N[*:1])[*:2]; X50 = O=C([C@H](CNC[C@@H](O)[C@@H](O)[C@H](O)[C@H](O)C(O)CO)N[*:1])[*:2]; X1 = O=C([C@H](CNC[C@H](O)[C@H](O)[C@H](O)[C@H](O)CO)N[*:1])[*:2]; X68 = O=C([C@H](CCNC[C@@H](O)[C@H](O)[C@H](O)CO)N[*:1])[*:2]; X67 = O=C([C@H](CNC[C@@H](O)[C@H](O)[C@H](O)CO)N[*:1])[*:2]; Trp(1-CH2COOH) = N[C@@H](Cc1cn(CC(=O)O)c2ccccc12)C(=O)O; X45 = CCn1c2ccccc2c2cc(CNC[C@H](N[*:1])C(=O)[*:2])ccc21; X10 = O=C([C@H](CNCc1c2ccccc2nc2ccccc12)N[*:1])[*:2]; X13 = O=C([C@H](CNCc1cccc2[nH]ccc12)N[*:1])[*:2]; X19 = O=C([C@H](CCNCc1cccc2nccnc12)N[*:1])[*:2]; X18 = O=C([C@H](CNCc1cccc2nccnc12)N[*:1])[*:2]; Hyp = O=C(O)[C@@H]1C[C@@H](O)CN1; NMeNle = CCCC[C@H](NC)C(=O)O; NMeA = CN[C@@H](C)C(=O)O; Dab = NCC[C@H](N)C(=O)O

In this assay the target is T1, PD-1/PD-L1 (Homo sapiens, UniProt Q9NZQ7).
T1 construct: TVMV protease site (linker) (C); made in house; host or cells: HEK293T cells
T1 sequence (Q9NZQ7 18-239): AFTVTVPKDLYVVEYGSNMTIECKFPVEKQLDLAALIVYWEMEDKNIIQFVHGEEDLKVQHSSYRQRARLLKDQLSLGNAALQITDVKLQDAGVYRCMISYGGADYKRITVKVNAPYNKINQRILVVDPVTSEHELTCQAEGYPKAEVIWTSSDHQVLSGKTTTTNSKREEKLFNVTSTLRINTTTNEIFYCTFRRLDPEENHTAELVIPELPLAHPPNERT
Nature of the assay: PD-1/PD-L1 Homogenous Time-Resolved Fluorescence (HTRF) binding assay. Particulars: PD-L1-His 10 nM, PD-1-Ig 20 nM. The gist of the method: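 Compounds preincubated 15 min with PD-L1-His (residues 18-239, 10 nM) in dPBS with 0.1% BSA, 0.05% Tween-20, then PD-1-Ig (residues 25-167, 20 nM) for 15 min. Eu-cryptate anti-Ig (1 nM) and APC anti-His (20 nM) equilibrated 30 min; 665/620 nm ratio read, IC50 derived.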
Consider `CCCC[C@H]1C(=O)N(C)[C@@H](CCCC)C(=O)N[C@@H](CC(C)C)C(=O)N[C@H](C(=O)NCC(N)=O)CSCC(=O)N[C@@H](Cc2ccc(O)cc2)C(=O)N(C)[C@@H](C)C(=O)N[C@@H](CC(N)=O)C(=O)N2CCC[C@H]2C(=O)N[C@@H](CNC[C@@H](O)[C@@H](O)[C@H](O)[C@H](O)C(O)CO)C(=O)N[C@@H](CC(C)C)C(=O)N2C[C@H](O)C[C@H]2C(=O)N[C@@H](Cc2c[nH]c3ccccc23)C(=O)N[C@@H](CCN)C(=O)N[C@@H](Cc2cn(CC(=O)O)c3ccccc23)C(=O)N1C` (some centres unmarked) [Example 2031] ({CH2CO}-Y[NMeA]NP[X50]L[Hyp]W[Dab][Trp(1-CH2COOH)][NMeNle][NMeNle]LCG-NH2; thioether N-14), for which the IC50 (in general, the midpoint of a concentration-inhibition curve) was found to be 9.1 nM.

Compound `CCCC[C@H]1C(=O)N(C)[C@@H](CCCC)C(=O)N[C@@H](CC(C)C)C(=O)N[C@H](C(=O)NCC(N)=O)CSCC(=O)N[C@@H](Cc2ccc(O)cc2)C(=O)N(C)[C@@H](C)C(=O)N[C@@H](CC(N)=O)C(=O)N2CCC[C@H]2C(=O)N[C@@H](CNCc2cccc3nccnc23)C(=O)N[C@@H](CC(C)C)C(=O)N2C[C@H](O)C[C@H]2C(=O)N[C@@H](Cc2c[nH]c3ccccc23)C(=O)N[C@@H](CCNCc2cccc3nccnc23)C(=O)N[C@@H](Cc2cn(CC(=O)O)c3ccccc23)C(=O)N1C` [Example 1002] ({CH2CO}-Y[NMeA]NP[X18]L[Hyp]W[X19][Trp(1-CH2COOH)][NMeNle][NMeNle]LCG-NH2; thioether N-14) gave an IC50 of 6.1 nM.

Compound `CCCC[C@H]1C(=O)N(C)[C@@H](CCCC)C(=O)N[C@@H](CC(C)C)C(=O)N[C@H](C(=O)NCC(N)=O)CSCC(=O)N[C@@H](Cc2ccc(O)cc2)C(=O)N(C)[C@@H](C)C(=O)N[C@@H](CC(N)=O)C(=O)N2CCC[C@H]2C(=O)N[C@@H](CNC[C@@H](O)[C@H](O)[C@H](O)CO)C(=O)N[C@@H](CC(C)C)C(=O)N2C[C@H](O)C[C@H]2C(=O)N[C@@H](Cc2c[nH]c3ccccc23)C(=O)N[C@@H](CCNC[C@@H](O)[C@H](O)[C@H](O)CO)C(=O)N[C@@H](Cc2cn(CC(=O)O)c3ccccc23)C(=O)N1C` [Example 2012] ({CH2CO}-Y[NMeA]NP[X67]L[Hyp]W[X68][Trp(1-CH2COOH)][NMeNle][NMeNle]LCG-NH2; thioether N-14) gave an IC50 of 0.7 nM.

As to `CCCC[C@H]1C(=O)N(C)[C@@H](CCCC)C(=O)N[C@@H](CC(C)C)C(=O)N[C@H](C(=O)NCC(N)=O)CSCC(=O)N[C@@H](Cc2ccc(O)cc2)C(=O)N(C)[C@@H](C)C(=O)N[C@@H](CC(N)=O)C(=O)N2CCC[C@H]2C(=O)N[C@@H](CNC2[C@@H](O)[C@@H](O)[C@@H](O)[C@H](O)[C@H]2O)C(=O)N[C@@H](CC(C)C)C(=O)N2C[C@H](O)C[C@H]2C(=O)N[C@@H](Cc2c[nH]c3ccccc23)C(=O)N[C@@H](CCN)C(=O)N[C@@H](Cc2cn(CC(=O)O)c3ccccc23)C(=O)N1C` (some centres unmarked) [Example 2020] ({CH2CO}-Y[NMeA]NP[X40]L[Hyp]W[Dab][Trp(1-CH2COOH)][NMeNle][NMeNle]LCG-NH2; thioether N-14), the IC50 was determined as 5 nM.

For the compound `CCCC[C@H]1C(=O)N(C)[C@@H](CCCC)C(=O)N[C@@H](CC(C)C)C(=O)N[C@H](C(=O)NCC(N)=O)CSCC(=O)N[C@@H](Cc2ccc(O)cc2)C(=O)N(C)[C@@H](C)C(=O)N[C@@H](CC(N)=O)C(=O)N2CCC[C@H]2C(=O)N[C@@H](CNC[C@H](O)[C@H](O)[C@H](O)[C@H](O)CO)C(=O)N[C@@H](CC(C)C)C(=O)N2C[C@H](O)C[C@H]2C(=O)N[C@@H](Cc2c[nH]c3ccccc23)C(=O)N[C@@H](CCN)C(=O)N[C@@H](Cc2cn(CC(=O)O)c3ccccc23)C(=O)N1C` [Example 2007] ({CH2CO}-Y[NMeA]NP[X1]L[Hyp]W[Dab][Trp(1-CH2COOH)][NMeNle][NMeNle]LCG-NH2; thioether N-14), the IC50 is 5.1 nM.

For the compound `CCCC[C@H]1C(=O)N(C)[C@@H](CCCC)C(=O)N[C@@H](CC(C)C)C(=O)N[C@H](C(=O)NCC(N)=O)CSCC(=O)N[C@@H](Cc2ccc(O)cc2)C(=O)N(C)[C@@H](C)C(=O)N[C@@H](CC(N)=O)C(=O)N2CCC[C@H]2C(=O)N[C@@H](CNC[C@H](O)[C@@H](O)[C@H](O[C@@H]2O[C@H](CO)[C@H](O)[C@H](O)[C@H]2O)[C@H](O)CO)C(=O)N[C@@H](CC(C)C)C(=O)N2C[C@H](O)C[C@H]2C(=O)N[C@@H](Cc2c[nH]c3ccccc23)C(=O)N[C@@H](CCNC[C@H](O)[C@@H](O)[C@H](O[C@@H]2O[C@H](CO)[C@H](O)[C@H](O)[C@H]2O)[C@H](O)CO)C(=O)N[C@@H](Cc2cn(CC(=O)O)c3ccccc23)C(=O)N1C` [Example 2028] ({CH2CO}-Y[NMeA]NP[X27]L[Hyp]W[X28][Trp(1-CH2COOH)][NMeNle][NMeNle]LCG-NH2; thioether N-14), the IC50 is 4.6 nM.

In turn, `CCCC[C@H]1C(=O)N(C)[C@@H](CCCC)C(=O)N[C@@H](CC(C)C)C(=O)N[C@H](C(=O)NCC(N)=O)CSCC(=O)N[C@@H](Cc2ccc(O)cc2)C(=O)N(C)[C@@H](C)C(=O)N[C@@H](CC(N)=O)C(=O)N2CCC[C@H]2C(=O)N[C@@H](CNCc2c3ccccc3nc3ccccc23)C(=O)N[C@@H](CC(C)C)C(=O)N2C[C@H](O)C[C@H]2C(=O)N[C@@H](Cc2c[nH]c3ccccc23)C(=O)N[C@@H](CCN)C(=O)N[C@@H](Cc2cn(CC(=O)O)c3ccccc23)C(=O)N1C` [Example 1013] ({CH2CO}-Y[NMeA]NP[X10]L[Hyp]W[Dab][Trp(1-CH2COOH)][NMeNle][NMeNle]LCG-NH2; thioether N-14) had an IC50 of 4.6 nM.

As for `CCCC[C@H]1C(=O)N(C)[C@@H](CCCC)C(=O)N[C@@H](CC(C)C)C(=O)N[C@H](C(=O)NCC(N)=O)CSCC(=O)N[C@@H](Cc2ccc(O)cc2)C(=O)N(C)[C@@H](C)C(=O)N[C@@H](CC(N)=O)C(=O)N2CCC[C@H]2C(=O)N[C@@H](CNCc2cccc3nccnc23)C(=O)N[C@@H](CC(C)C)C(=O)N2C[C@H](O)C[C@H]2C(=O)N[C@@H](Cc2c[nH]c3ccccc23)C(=O)N[C@@H](CCN)C(=O)N[C@@H](Cc2cn(CC(=O)O)c3ccccc23)C(=O)N1C` [Example 1004] ({CH2CO}-Y[NMeA]NP[X18]L[Hyp]W[Dab][Trp(1-CH2COOH)][NMeNle][NMeNle]LCG-NH2; thioether N-14), the IC50 came out at 4.3 nM.

`CCCC[C@H]1C(=O)N(C)[C@@H](CCCC)C(=O)N[C@@H](CC(C)C)C(=O)N[C@H](C(=O)NCC(N)=O)CSCC(=O)N[C@@H](Cc2ccc(O)cc2)C(=O)N(C)[C@@H](C)C(=O)N[C@@H](CC(N)=O)C(=O)N2CCC[C@H]2C(=O)N[C@@H](CNCc2cccc3[nH]ccc23)C(=O)N[C@@H](CC(C)C)C(=O)N2C[C@H](O)C[C@H]2C(=O)N[C@@H](Cc2c[nH]c3ccccc23)C(=O)N[C@@H](CCN)C(=O)N[C@@H](Cc2cn(CC(=O)O)c3ccccc23)C(=O)N1C` [Example 1015] ({CH2CO}-Y[NMeA]NP[X13]L[Hyp]W[Dab][Trp(1-CH2COOH)][NMeNle][NMeNle]LCG-NH2; thioether N-14) returned an IC50 of 5.1 nM.

In turn, `CCCC[C@H]1C(=O)N(C)[C@@H](CCCC)C(=O)N[C@@H](CC(C)C)C(=O)N[C@H](C(=O)NCC(N)=O)CSCC(=O)N[C@@H](Cc2ccc(O)cc2)C(=O)N(C)[C@@H](C)C(=O)N[C@@H](CC(N)=O)C(=O)N2CCC[C@H]2C(=O)N[C@@H](CNCc2ccc3c(c2)c2ccccc2n3CC)C(=O)N[C@@H](CC(C)C)C(=O)N2C[C@H](O)C[C@H]2C(=O)N[C@@H](Cc2c[nH]c3ccccc23)C(=O)N[C@@H](CCN)C(=O)N[C@@H](Cc2cn(CC(=O)O)c3ccccc23)C(=O)N1C` [Example 1014] ({CH2CO}-Y[NMeA]NP[X45]L[Hyp]W[Dab][Trp(1-CH2COOH)][NMeNle][NMeNle]LCG-NH2; thioether N-14) came in with a concentration for half-maximal inhibition (IC50) of 4.7 nM.

Take `CCCC[C@H]1C(=O)N(C)[C@@H](CCCC)C(=O)N[C@@H](CC(C)C)C(=O)N[C@H](C(=O)NCC(N)=O)CSCC(=O)N[C@@H](Cc2ccc(O)cc2)C(=O)N(C)[C@@H](C)C(=O)N[C@@H](CC(N)=O)C(=O)N2CCC[C@H]2C(=O)N[C@@H](CNCc2ccccc2O[C@@H]2O[C@H](CO)[C@@H](O)[C@H](O)[C@H]2O)C(=O)N[C@@H](CC(C)C)C(=O)N2C[C@H](O)C[C@H]2C(=O)N[C@@H](Cc2c[nH]c3ccccc23)C(=O)N[C@@H](CCNCc2ccccc2O[C@@H]2O[C@H](CO)[C@@H](O)[C@H](O)[C@H]2O)C(=O)N[C@@H](Cc2cn(CC(=O)O)c3ccccc23)C(=O)N1C` [Example 1006] ({CH2CO}-Y[NMeA]NP[X47]L[Hyp]W[X48][Trp(1-CH2COOH)][NMeNle][NMeNle]LCG-NH2; thioether N-14): the IC50 worked out at 32 nM.
